Results: patent publication US20170348306A1, “METHODS OF TREATING CANCER” (GLAXOSMITHKLINE LLC, priority 2011, published 2017)

Tested on: H3K27me3 and EZH2 target genes in tumor xenografts
Assay: Pharmacodynamic study in tumor xenografts (H3K27me3/H3 ELISA, qRT-PCR)
Assay type: in vivo, mice
Conditions: 10 days of once-daily (QD) dosing; dose-dependent
Method: Following tissue homogenization, tumor tissue lysates were prepared using the Epigentek Histone Extraction kit (OP-0006). […] Cells were lysed with 0.2N HCl for 30 minutes to extract histones, the acid-insoluble portion was pelleted by centrifugation, and the supernatant was neutralized with neutralization buffer (1M Na2HPO4, pH 12.5; ActiveMotif) containing protease inhibitors (Roche). Lysates were added to Maxisorp ELISA plates (Nunc) in duplicate on each of two plates plus blocking buffer (1% BSA). […] Luminata Forte substrate (Millipore) was added 5 minutes before chemiluminescence was quantified with an EnVision multi-label plate reader (PerkinElmer). H3K27me3 levels were normalized to total H3 values and IC50 values were determined using a 4-parameter curve fit. […]
All studies were conducted after review by the Institutional Animal Care and Use Committee at GSK and in accordance with the GSK Policy on the Care, Welfare and Treatment of Laboratory Animals. […] Tumors were measured with calipers, block randomized according to tumor size into treatment groups. […] Mice were weighed and tumors measured with calipers twice weekly. […]

## CC[C@H](C)n1cc(C)c2c(C(=O)NCc3c(C)cc(C)[nH]c3=O)cc(-c3ccc(N4CCNCC4)nc3)cc21 [GSK126]
  gene expression in tumor xenografts: increased
  global H3K27me3 in tumor xenografts: decreased
